The text below walks through data of PubChem BioAssay (NCI).

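How tested: cells in 96-well plates exposed to compound for 48 hours at five concentrations. TGI marks complete inhibition of growth.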

Holding throughout (test): NCI anticancer screen, dose series, 48 h
The test system of test [1] is MALME-3M melanoma.
Test [2] concerns K-562 leukemia.
Test [3] deals with TK-10 renal.
Test [4] relates to SNB-75 CNS.
In test [5] the test system is MCF7 breast.
For test [6], the system named is NCI-H522 lung.
Test [7] concerns ACHN renal.
For test [8], the system named is HCC-2998 colon.
Test [9] has as its system SNB-19 CNS.
Test [10] relates to SK-MEL-5 melanoma.

On to `CCOC(=O)NC(C(F)(F)F)(C(F)(F)F)P(=O)(OCC)OCC`, for which the TGI in test [1] is more than 100 µM; in [2], more than 100 µM; in test [3], more than 100 µM; in test [4], more than 100 µM; in test [5] it was more than 100 µM; in test [6], 36.9 µM. The TGI in [7], in [8] and in [9] was more than 100 µM throughout.

Turning to `CC1=C(N2CC2)C(=O)C(C)=C(N2CC2)C1=O`, the TGI in [1] came out at 0.541 µM; in test [2], 3.92 µM; in [10], 0.363 µM; in [3], 1.5 µM; in test [4] it was 1.57 µM; in [5] it was 1.46 µM. Moreover, the TGI in [6] worked out at 0.423 µM; in test [7] it was 0.445 µM; in test [8], 0.362 µM; in test [9], 8.33 µM.

`S=C1C(CCCOCc2ccccc2)C2CCCC23CC2(CCN13)OCCS2` (configuration not stated): the TGI in [1], in test [2], in [10], in [3], in test [4] and in [5] was more than 10 µM each time. The TGI in [6], in test [7], in test [8] and in test [9] was more than 10 µM in each case.

With `O=C(O)c1ccc(Nc2nc3ccc(C(F)(F)F)cc3nc2C(=O)O)cc1`, the TGI in test [1], in test [2], in test [10], in test [3], in [4] and in test [5] was more than 100 µM in each case. In addition, the TGI in [6], in test [7], in test [8] and in test [9] was more than 100 µM in each case.

On to `COC(=O)CCc1cc(OC)c2oc(-c3ccc(OC)c(OC)c3)c(CO)c2c1`, for which the TGI in test [1], in test [2], in test [10], in test [3], in test [5] and in [6] was more than 100 µM each time. Also, the TGI in test [7], in test [8] and in test [9] was more than 100 µM throughout.

As to `Nc1n[nH]c(N)n1`, the TGI in [1], in test [2], in [10], in test [3], in [4] and in [5] was more than 10000 µM in each case. Further, the TGI in test [6] is 4640 µM; in [7], more than 10000 µM; in test [8], more than 10000 µM; in test [9], more than 10000 µM.

For the compound `COC1=C(OC)C(=O)C(C/C=C/c2c(Cl)nc3sccn23)=C(C)C1=O`, the TGI in test [1] amounted to 17 µM; in test [2], 68.3 µM; in test [10], 12.9 µM; in test [3], 34.9 µM; in test [5], 52.8 µM; in test [6], 33.2 µM. The TGI in test [7] was determined as 36.1 µM; in test [8], 39.3 µM; in test [9], 27.6 µM.

On to `Cc1cc(S(=O)(=O)Nc2nnc3c(Cl)cc(C(F)(F)F)cn23)c(S)cc1Cl`, for which the TGI in test [1] is more than 100 µM; in [2], more than 100 µM; in test [10], more than 80.6 µM; in test [3], more than 100 µM; in [4] it was 9.12 µM; in [5], more than 100 µM. Also, the TGI in test [6] was more than 100 µM; in test [7] it was more than 100 µM; in [8], more than 100 µM; in test [9], more than 91.4 µM.

For `COC(=O)N1C2C(C[C@@]1(C)C(=O)OC)c1ccccc1N2S(=O)(=O)c1ccccc1` (some centres not stated), the TGI in test [1], in test [2], in [10], in test [3], in [4] and in test [5] was more than 100 µM each time. Besides, the TGI in test [6], in test [7], in test [8] and in test [9] was more than 100 µM throughout.

As to `CCN(CC)CCC(=O)Nc1ccc2sc3ccccc3c(=O)c2n1`, the TGI turned out to be 39.1 µM in [1]; 41.4 µM in [2]; 33.8 µM in [10]; 57.5 µM in test [3]; 21.6 µM in test [4]; 36.5 µM in test [5]. In addition, the TGI in [6] was 30.4 µM; in test [7], 38.1 µM; in test [8] it was 42.7 µM; in [9], 53.1 µM.

For `CCCC1(N2C(=O)c3ccc4c5c(ccc(c35)C2=O)N(C2(CCC)CCCCC2)C4=O)CCCCC1`, the TGI in test [1], in test [2], in [10], in [3], in test [5] and in test [6] was more than 100 µM in each case. Further, the TGI in test [7], in test [8] and in [9] was more than 100 µM in each case.

Take `O=C(O)CCC1(CCC(=O)O)CCCCCCCCC(CCC(=O)O)(CCC(=O)O)C(=O)C1=O`: the TGI in test [1], in test [2], in test [3], in test [4], in test [5] and in test [6] was more than 100 µM throughout. Moreover, the TGI in [7], in test [8] and in test [9] was more than 100 µM in each case.

For `CCOC(=O)CN1C(=O)c2c(NC(=O)C(=O)O)cccc2S1(=O)=O`, the TGI in test [1], in [2], in [10], in test [3], in [5] and in [6] was more than 100 µM each time. Besides, the TGI in test [7], in test [8] and in [9] was more than 100 µM throughout.

Take `COc1c(-c2ccc(F)cc2)oc2c(CC(=O)O)cccc2c1=O`: the TGI in test [1], in [2], in test [10], in test [3], in [5] and in test [6] was more than 100 µM throughout. In addition, the TGI in [7] and in test [8] was more than 100 µM in each case.
